According to patent EP0135897A2 (priority 1983, dated 1985):

Tests used:
[1] = test system: Brusone-Pilzes (Piricularia oryzae); assay type: in vivo; details: Wirkstoff-Konzentration 0,8 g/m^2 applied to the water surface; rice (Asahi) inoculated 4 days later; assessed 7 days after inoculation; three pots per test
[2] = test system: Reispflanzen (Varietät: Asahi); details: in vivo

| SMILES | Bekämpfungs-Index (%) [1] [%] | Phyto-toxizität [2] |
| --- | --- | --- |
| CC1(CCl)C(COC(=O)CCl)C1(Cl)Cl [D-1, 2,2-Dichloro-(cis)-3-methyl-(trans)-3-chloromethylcyclopropanmethanol-chloroacetat] | 100 | - |
| CC1(CCl)C(CO)C1(Cl)Cl (stereo not drawn) [Verbindung d. Erfindung, 2,2-Dichloro-(cis)-3-methyl-(trans)-3-chloromethylcyclopropanmethanol] | 100 | - |
